# Several values for one entry are separate records, joined by “and”; a condition that tells them apart may be missing. Equal values may be shown once. Read-outs that look alike come from different tables or passages of the source.
# Key:
# [1] = 5 μg into the uterine horn on days 6, 9 and 12 following fertilization; cited from earlier work
# C57/BL6 mice = assay: α-NETA acute single dose toxicity (LD50); type: in vivo, mouse
# Excerpt: FIG. 3. Acute single dose toxicity (LD50) of α-NETA. […] The remaining mice were monitored for 14 days. Graph depicts lethality at each dose, n=3 per mice/dose.
# Cyp2B6 = target: T1, Cyp2B6 (Homo sapiens, UniProt P20813); assay: Cyp enzyme inhibition, human liver microsomes; type: in vitro ADME; details: 30 min pre-incubation
# T1 construct: Human liver microsomes were pre-incubated with 7 concentrations; tissue Cyprotex/Evotec AG; host or cells: human liver microsomes
# T1 sequence (P20813 1-491): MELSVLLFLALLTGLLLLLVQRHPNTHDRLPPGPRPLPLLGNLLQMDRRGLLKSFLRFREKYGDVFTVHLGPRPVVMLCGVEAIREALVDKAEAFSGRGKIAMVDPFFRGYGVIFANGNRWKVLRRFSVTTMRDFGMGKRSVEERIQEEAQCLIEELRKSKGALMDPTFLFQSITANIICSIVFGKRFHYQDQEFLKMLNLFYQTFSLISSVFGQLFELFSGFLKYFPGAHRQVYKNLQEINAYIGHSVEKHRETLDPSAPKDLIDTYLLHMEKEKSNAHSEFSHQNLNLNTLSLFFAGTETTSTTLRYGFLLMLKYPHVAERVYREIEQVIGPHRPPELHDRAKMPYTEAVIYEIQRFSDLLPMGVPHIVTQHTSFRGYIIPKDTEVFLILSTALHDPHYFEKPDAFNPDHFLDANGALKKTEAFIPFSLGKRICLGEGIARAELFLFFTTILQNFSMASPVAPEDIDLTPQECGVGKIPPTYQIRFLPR
# Method: (§1) Cyp enzyme inhibition. Human liver microsomes were pre-incubated with 7 concentrations ([…], duplicate wells) of α-NETA for 30 min.
# Cyp2C19 = target: T2, Cyp2C19 (Homo sapiens, UniProt P33261); assay: Cyp enzyme inhibition, human liver microsomes; type: in vitro ADME; details: 30 min pre-incubation
# T2 construct: Human liver microsomes were pre-incubated with 7 concentrations; tissue Cyprotex/Evotec AG; host or cells: human liver microsomes
# Method: as §1
# Cyp2C9 = target: T3, Cyp2C9 (Homo sapiens, UniProt P11712); assay: Cyp enzyme inhibition, human liver microsomes; type: in vitro ADME; details: 30 min pre-incubation
# T3 construct: Human liver microsomes were pre-incubated with 7 concentrations; tissue Cyprotex/Evotec AG; host or cells: human liver microsomes
# Method: as §1
# Cyp2C8 = target: T4, Cyp2C8 (Homo sapiens, UniProt P10632); assay: Cyp enzyme inhibition, human liver microsomes; type: in vitro ADME; details: 30 min pre-incubation
# T4 construct: Human liver microsomes were pre-incubated with 7 concentrations; tissue Cyprotex/Evotec AG; host or cells: human liver microsomes
# T4 sequence (P10632 1-490): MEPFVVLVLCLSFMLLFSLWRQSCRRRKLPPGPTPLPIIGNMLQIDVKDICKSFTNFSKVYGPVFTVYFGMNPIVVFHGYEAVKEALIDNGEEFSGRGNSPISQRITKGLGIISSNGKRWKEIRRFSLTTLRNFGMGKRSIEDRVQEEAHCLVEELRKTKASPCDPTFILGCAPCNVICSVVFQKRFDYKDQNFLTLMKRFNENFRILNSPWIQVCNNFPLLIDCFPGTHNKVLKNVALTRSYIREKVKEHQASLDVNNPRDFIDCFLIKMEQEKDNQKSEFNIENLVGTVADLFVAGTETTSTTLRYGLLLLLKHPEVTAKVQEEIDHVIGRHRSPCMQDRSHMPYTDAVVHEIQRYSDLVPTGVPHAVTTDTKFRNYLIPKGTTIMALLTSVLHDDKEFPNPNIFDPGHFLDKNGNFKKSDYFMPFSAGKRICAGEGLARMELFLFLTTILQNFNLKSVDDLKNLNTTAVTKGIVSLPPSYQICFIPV
# Method: as §1
# EAE in C57BL/6 mice = assay: EAE induced by MOG35-55/CFA immunization; type: in vivo, mouse; details: FIG. 1C; 10 mg/kg daily; compared with Tecfidera or vehicle control
# Method: FIG. 1A-1D. […] (FIG. 1D) The integrated clinical score over time for each animal was calculated as area under the curve (AUC).
# EAE. […] CFA consisted of 5 mg/ml mTB (Mycobacterium-tuberculosis H37 Ra, BD Difco) in IFA (Incomplete Freund's Adjuvant, Sigma). MOG35-55 was reconstituted at 2 mg/ml in PBS. Mice also received 200 ng pertussis toxin (List Biological Laboratories, Inc) by i.p. injection at the time of immunization and two days later. […] For a direct comparison to α-NETA, the DMF and compound doses were also 10 mg/kg in 10% captisol. Mice were monitored daily for clinical disease and scored (0=normal/healthy, 1=limp tail, 2=hindlimb weakness, 3=hindlimb paralysis, 4=hindlimb and forelimb paralysis, 5=moribund/dead).
# Cyp3A4 = Cyp3A4 (Homo sapiens, UniProt P08684); assay: Cyp enzyme inhibition, human liver microsomes; type: in vitro ADME; set-up: Human liver microsomes were pre-incubated with 7 concentrations; tissue Cyprotex/Evotec AG; host or cells: human liver microsomes
# Method: as §1
# Chain of Cyp3A4 (P08684 whole entry): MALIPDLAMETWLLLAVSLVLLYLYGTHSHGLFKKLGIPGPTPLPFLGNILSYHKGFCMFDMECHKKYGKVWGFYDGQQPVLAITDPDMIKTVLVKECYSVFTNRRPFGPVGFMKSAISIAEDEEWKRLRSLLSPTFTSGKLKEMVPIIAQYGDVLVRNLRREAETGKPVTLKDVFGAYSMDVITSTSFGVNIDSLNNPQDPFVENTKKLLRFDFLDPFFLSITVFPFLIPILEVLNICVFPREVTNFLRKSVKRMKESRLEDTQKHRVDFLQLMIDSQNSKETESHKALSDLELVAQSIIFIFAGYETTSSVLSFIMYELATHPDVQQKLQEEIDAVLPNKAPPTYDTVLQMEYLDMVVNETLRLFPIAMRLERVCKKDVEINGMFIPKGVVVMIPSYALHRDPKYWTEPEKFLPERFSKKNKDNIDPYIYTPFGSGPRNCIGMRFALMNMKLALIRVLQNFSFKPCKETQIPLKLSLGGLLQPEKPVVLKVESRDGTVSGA
# T3 sequence (P11712 whole entry): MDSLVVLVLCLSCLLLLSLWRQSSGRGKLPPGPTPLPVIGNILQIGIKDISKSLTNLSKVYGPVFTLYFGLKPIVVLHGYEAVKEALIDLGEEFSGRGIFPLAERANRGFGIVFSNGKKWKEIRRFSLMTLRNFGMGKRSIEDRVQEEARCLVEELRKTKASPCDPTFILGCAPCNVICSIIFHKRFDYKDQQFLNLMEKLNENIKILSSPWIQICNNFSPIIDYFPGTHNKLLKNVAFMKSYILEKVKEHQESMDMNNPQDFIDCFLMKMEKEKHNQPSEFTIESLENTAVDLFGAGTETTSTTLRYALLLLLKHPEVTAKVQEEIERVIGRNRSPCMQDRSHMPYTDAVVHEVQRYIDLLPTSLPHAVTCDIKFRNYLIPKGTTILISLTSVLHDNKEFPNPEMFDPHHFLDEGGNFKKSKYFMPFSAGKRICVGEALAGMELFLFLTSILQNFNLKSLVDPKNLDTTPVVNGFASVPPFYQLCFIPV
# T2 sequence (P33261 whole entry): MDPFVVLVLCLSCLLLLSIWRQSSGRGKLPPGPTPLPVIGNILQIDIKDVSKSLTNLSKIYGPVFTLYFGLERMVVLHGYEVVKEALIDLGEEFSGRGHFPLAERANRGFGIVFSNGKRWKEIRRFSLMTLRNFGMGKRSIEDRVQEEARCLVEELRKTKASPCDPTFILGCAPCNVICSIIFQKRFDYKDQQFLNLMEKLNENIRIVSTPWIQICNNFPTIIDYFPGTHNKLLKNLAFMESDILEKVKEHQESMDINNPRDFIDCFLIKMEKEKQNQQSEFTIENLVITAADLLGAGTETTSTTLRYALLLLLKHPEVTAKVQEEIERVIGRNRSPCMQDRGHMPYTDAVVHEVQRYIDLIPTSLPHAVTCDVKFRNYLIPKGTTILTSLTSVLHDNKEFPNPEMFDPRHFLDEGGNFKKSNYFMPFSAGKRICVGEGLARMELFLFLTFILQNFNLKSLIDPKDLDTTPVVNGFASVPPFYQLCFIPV
smiles,measurement,setting,value
"C[N+](C)(C)CCC(=O)c1cccc2ccccc12.[I-] [α-NETA, 2-(α-naphthoyl) ethyltrimethylammonium iodide]",embryo resorption,[1],significant embryo resorption
same,"calculated LD50, acute single dose","C57/BL6 mice; p.o., mice, 10% captisol",873 mg/kg
same,lethality,"C57/BL6 mice; two highest doses (3000, 1000 mg/kg) by oral gavage",Lethal effects were observed within hours
same,IC50,Cyp2B6,0.12 µM
same,IC50,Cyp2C19,84 µM
same,IC50,Cyp2C9,14.6 µM
same,IC50,Cyp2C8,1.5 µM
same,severity of clinical EAE,EAE in C57BL/6 mice,significantly suppressed
same,IC50,"Cyp3A4; human liver microsomes, substrate Midazolam, read-out: Cyp Inhibition IC50 (μM), Cyp3A4",7.4 µM and 7.5 µM
same,IC50,"Cyp3A4; substrate testosterone, read-out: Cyp3A4 IC50",6.9 µM

# — patent US11730705B2, “Small molecule CMKLR1 antagonists in inflammatory disease” (The Board of Trustees of the Leland Stanford Junior …, priority 2019, dated 2023)
